Experiments:
cells [1] = test: Time-resolved anisotropy in cells; type: cell-based
Procedure: (§1) Time resolved fluorescence measurements. Fluorescence lifetime and anisotropy decay measurements were carried out in the frequency domain by cuvette fluorimetry using a Fourier transform fluorimeter (48000 MHF, SLM Instruments, Urbana, Ill.) or by fluorescence microscopy using epifluorescence microscope optics in place of the cuvette compartment (Verkman et al., 1991). For microscopy measurements, impulse-modulated vertically polarized light (442 nm, He--Cd laser 35 mwatts) was reflected onto the sample by a 510 nm dichroic mirror and objective lens; emitted fluorescence was filtered by a 515 nm barrier filter and passed through a rotatable analyzing calcite polarizer. In some experiments, a biconcave lens was introduced just in front of the dichroic mirror to diverge beam diameter in the focal plane to […].
Analysis of lifetime and time-resolved anisotropy was performed by a comparative approach. Generally six pairs of measurements (each acquisition 8 s) were obtained, comparing sample and reference (fluorescein in 0.1 N NaOH, lifetime 4.0 ns) for measurement of lifetime, and parallel and perpendicular orientations of the emission polarizer for measurement of anisotropy decay. The phase-modulation data consisted of phase angles and modulation ratios at 40 discrete, equally spaced modulation frequencies (5-200 MHz). The analyzing polarizer was positioned at the magic angle for lifetime measurements. Additional details of the data acquisition and analysis routines were described previously (Verkman et al., 1991). Median phase and modulation values for paired data were analyzed by nonlinear least-squares for determination of lifetimes and rotational correlation times.
Time-resolved anisotropy was measured to quantify intracellular LZQ binding. In water, LZQ rotated freely with a single-component rotational correlation time of 121±3 ps (n=3). For LZQ in cells, a plot of differential phase and modulation amplitude ratio indicated a two-component anisotropy decay model with a major component (fractional amplitude 0.90-0.94) of 144±10 ps, similar to that in water.

[2] = Time-resolved anisotropy in water; type: physicochemical; conditions: single-component, n=3
Procedure: as §1
Analysis of lifetime and time-resolved anisotropy was performed by a comparative approach. Generally six pairs of measurements (each acquisition 8 s) were obtained, comparing sample and reference (fluorescein in 0.1 N NaOH, lifetime 4.0 ns) for measurement of lifetime, and parallel and perpendicular orientations of the emission polarizer for measurement of anisotropy decay. […] Median phase and modulation values for paired data were analyzed by nonlinear least-squares for determination of lifetimes and rotational correlation times.

cells [3] = test: Indicator leakage / cytoplasmic retention; type: cell-based
Procedure: (§2) Fluorescence microscopy. Fluorescence microscopy measurements were performed as described previously (Chao et al., 1989). Briefly, coverglasses were mounted in a 0.5 ml perfusion chamber in which the cell-free glass surface made contact with an oil immersion objective (Nikon ×40 magnification, numerical aperture[NA] 1.3). Cell fluorescence was excited at 365±10 nm (SPQ) or 420 nm±10 nm (LZQ and LMQ). Emitted fluorescence was detected by a photomultiplier in a Nikon inverted epifluorescence microscope using a 410 nm dichroic mirror and 420 nm barrier filter (SPQ) or a 455 nm dichroic mirror and 500 nm barrier filter (LZQ). For cells colabeled with SPQ and LZQ, SPQ fluorescence was excited at 365±10 nm and detected using a 410 nm dichroic mirror and 455±30 nm interference filter. Confocal fluorescence micrographs were obtained using a Nipkow wheel confocal microscope and cooled CCD camera detector using a ×60 oil immersion objective (Nikon, NA 1.4). LZQ-labeled cells were viewed using a fluorescein filter set (excitation 480±15 nm, emission 520±20 nm).
A time course of LZQ fluorescence during perfusion with physiological saline at 23° C. was generated. A small group of 20-30 cells was illuminated continuously and fluorescence was detected by a photomultiplier using an ×40, 1.3 NA objective. Cellular fluorescence decreased slowly at a rate of 2.5% per hour. To determine the relative contributions of indicator leakage vs. photobleaching to the slow decline in fluorescence, the perfused cells were illuminated intermittently. […] Background fluorescence (in non-labeled cells) was generally <5% of the fluorescence of LZQ-labeled cells.

CFTR = test: I^-/NO3^- exchange in forskolin-stimulated CFTR-expressing cells; type: cell-based
Procedure: (§3) Transport measurements. Cells were labeled with LZQ or SPQ by hypotonic shock (loading buffer/water 1:1 containing 2 mM LZQ or 7.5 mM SPQ) for 5 min at room temperature or by overnight incubation with indicators in the cell culture medium. Extracellular indicator was removed by washing just prior to measurements. For fluorescence microscopy, glass coverslips were then mounted in a perfusion chamber (flow ~2 ml/min) in which solutions were exchanged using a 4-way valve. For microplate reader measurements, cells in 96-well plates were bathed in […] of the `1st buffer` (see Table 3) and […] of the Cl^- -containing, I^- -free solution was injected into the well to drive Cl^- /I^- exchange (protocol 1). For stimulation of CFTR using protocol 2, […] of a 1:8 mixture of the 1st buffer and the 2nd buffer containing […] forskolin, 2 mM CPT-cAMP and […] IBMX was added.
For determination of the absolute I^- transport rates, the time course of intracellular [I^- ] was computed from the time course of SPQ or LZQ fluorescence using the modified Stem-Volmer equation [I^- ]={([Fo -Fb ]/[F-Fb ])-1}/KI, where Fo is fluorescence intensity in the absence of I^-, Fb is background fluorescence of unlabeled cells, and KI the intracellular quenching constant for I^- (see Results). I^- transport rates were calculated from the slope of a linear regression of the first 10 time points after changing perfusate composition.
The utility of LZQ for functional measurement of CFTR expression was tested. […] A comparison of data obtained for cells loaded with LZQ and SPQ initially loaded with I^-, followed by replacement of I^- with NO3^- in the absence of forskolin, followed by addition of forskolin was also performed. The initial rates of forskolin-stimulated I^- efflux (SPQ: 0.09±0.02 mM/s; LZQ: 0.08±0.01 mM/s) were similar. Measurements of Cl^- /NO3^- exchange were also carried out by measuring SPQ fluorescence using cells labeled with SPQ alone vs. cells colabeled with SPQ and LZQ.

cells [4] = test: Cell loading and intracellular distribution (fluorescence/confocal microscopy); type: cell-based
Procedure: as §2, §3
(§4) LZQ and LMQ were loaded into cells efficiently by hypotonic shock or passive incubation. […] As was found for SPQ, LZQ and LMQ were non-toxic to cells in assays of cell growth (2 mM in culture medium for 72 h).

cells [5] = test: Response of intracellular fluorescence to osmotically-induced changes in cell volume; type: cell-based
Procedure: as §2
The similar LZQ lifetime in cells and water predicts that LZQ fluorescence should be relatively insensitive to cell volume in the absence of I^-. […] When cells were exposed to hypoosmotic medium (225 mOsm), SPQ fluorescence increased by 15±2%, whereas LZQ fluorescence increased by only 4±1%.

cells [6] = test: Chemical stability in cells (thin layer chromatography of lysates); type: cell-based; conditions: TLC of lysates from loaded cells
Procedure: as §4

[O-]c1nc2c(N[C@@H]3O[C@H](CO)[C@@H](O)[C@H]3O)ncnc2[n+]2ccccc12 [I, 4-(β-D-ribofuranosylamino)-pyrido [2,1-h] pteridin-11-ium-5-olate]
binding to intracellular components (cells [1]): negligible binding
fractional amplitude of major component (cells [1]; in cells): 0.90-0.94
rotational correlation time, major component (cells [1]; in cells, two-component model): 144±10 ps
rotational correlation time [2]: 121±3 ps
cytoplasmic retention vs. LMQ (cells [3]): better cytoplasmic retention properties than LMQ
leakage out of cells (cells [3]; microplate section): low rate
rate of decrease of cellular fluorescence (cells [3]; perfusion with physiological saline, 23° C.): 2.5 % per hour
initial rate of forskolin-stimulated I^- efflux (CFTR; I^- replaced by NO3^- without forskolin, then forskolin added): 0.08 ± 0.01 mM/s
computed I^- efflux rate (CFTR; forskolin-stimulated CFTR-expressing cells, I^-/NO3^- exchange): 0.09 ± 0.03 mM/s
computed I^- influx rate (CFTR; forskolin-stimulated CFTR-expressing cells, I^-/NO3^- exchange, S.E., n=3): 0.25 ± 0.01 mM/s
Cellular properties: staining/distribution (cells [4]; Table 4): staining uniform
labeling of cytoplasm and nucleoplasm (cells [4]; all cell types tested: T84, Calu-3, JME, LLC-PK1, MDCK, 3T3 fibroblasts, CHO, HeLa): uniform labeling of the cytoplasm and nucleoplasm
fluorescence intensity in cells vs. SPQ (cells [4]; confocal, substantially higher SPQ concentration used): remarkably more intense
loading into cells (cells [4]; hypotonic shock or passive incubation): efficiently
fluorescence increase upon exposure to hypoosmotic medium (cells [5]; 225 mOsm): 4±1%
fluorescence change upon exposure to hyperosmotic medium (cells [5]; 600 mOsm, absence of I^-): 5±1%
chemical stability in cells (cells [6]): remained chemically stable in cells
